Converted amounts (≈) assume the structure as drawn. The source made the active and inactive calls. The rule behind the calls is not given here.
Experiments:
Salmonella typhimurium [1] = assay: Antibacterial activity against Salmonella enterica subsp. enterica serovar Typhimurium at 6.25 to 100 ug/ml after 24 hr by two-fold serial dilution method; type: functional, organism-based
[2] = tested on: Mycobacterium tuberculosis; assay: Antimycobacterium activity against Mycobacterium tuberculosis H37Rv at 100 ug/ml by Microplate Alamar Blue Assay; type: functional, organism-based
Pseudomonas aeruginosa [3] = assay: Antibacterial activity against Pseudomonas aeruginosa ATCC 27855 at 6.25 to 100 ug/ml after 24 hr by two-fold serial dilution method; type: functional, organism-based
Shigella sonnei [4] = assay: Antibacterial activity against Shigella sonnei ATCC 11060 at 6.25 to 100 ug/ml after 24 hr by two-fold serial dilution method; type: functional, organism-based
Bacillus subtilis [5] = assay: Antibacterial activity against Bacillus subtilis ATCC 10400 at 6.25 to 100 ug/ml after 24 hr by two-fold serial dilution method; type: functional, organism-based
Escherichia coli [6] = assay: Antibacterial activity against Escherichia coli ATCC 25922 at 6.25 to 100 ug/ml after 24 hr by two-fold serial dilution method; type: functional, organism-based
Candida albicans [7] = assay: Antifungal activity against Candida albicans ATCC 10231 at 6.25 to 100 ug/ml after 7 days by two-fold serial dilution method; type: functional, organism-based
Staphylococcus aureus [8] = assay: Antibacterial activity against Staphylococcus aureus ATCC 25293 at 6.25 to 100 ug/ml after 24 hr by two-fold serial dilution method; type: functional, organism-based
Staphylococcus aureus [9] = assay: Antibacterial activity against Staphylococcus aureus ATCC 25293 after 24 hr by two-fold serial dilution method; type: functional; settings: ATCC 25293, 24 h
Bacillus subtilis [10] = assay: Antibacterial activity against Bacillus subtilis ATCC 10400 after 24 hr by two-fold serial dilution method; type: functional; settings: ATCC 10400, 24 h
Pseudomonas aeruginosa [11] = assay: Antibacterial activity against Pseudomonas aeruginosa ATCC 27855 after 24 hr by two-fold serial dilution method; type: functional; settings: ATCC 27855, 24 h
Candida albicans [12] = assay: microbe, parasite or virus in culture; settings: ATCC 10231, 168 h
Description: Antifungal activity against Candida albicans ATCC 10231 after 7 days by two-fold serial dilution method

Shigella sonnei [13] = assay: Antibacterial activity against Shigella sonnei ATCC 11060 after 24 hr by two-fold serial dilution method; type: functional; settings: ATCC 11060, 24 h
Escherichia coli [14] = assay: Antibacterial activity against Escherichia coli ATCC 25922 after 24 hr by two-fold serial dilution method; type: functional; settings: ATCC 25922, 24 h
Salmonella typhimurium [15] = assay: Antibacterial activity against Salmonella enterica subsp. enterica serovar Typhimurium after 24 hr by two-fold serial dilution method; type: functional

Structure (SMILES)	Activity (Salmonella typhimurium [1])	Activity [2]	Activity (Pseudomonas aeruginosa [3])	Activity (Shigella sonnei [4])	Activity (Bacillus subtilis [5])	Activity (Escherichia coli [6])	Activity (Candida albicans [7])	Activity (Staphylococcus aureus [8])	MIC (Staphylococcus aureus [9]) [µg/mL]	MIC (Bacillus subtilis [10]) [µg/mL]	MIC (Pseudomonas aeruginosa [11]) [µg/mL]	MIC (Candida albicans [12]) [µg/mL]	MIC (Shigella sonnei [13]) [µg/mL]	MIC (Escherichia coli [14]) [µg/mL]	MIC (Salmonella typhimurium [15]) [µg/mL]
Cc1ccc(/C=N\NC(=O)C(C)Oc2cc(Cl)c(Cl)cc2Cl)s1 (configuration not stated)	inactive	inactive	inactive	inactive	inactive	inactive	inactive	inactive	–	–	–	–	–	–	–
CC(Oc1cc(Cl)c(Cl)cc1Cl)C(=O)N/N=C\c1cccs1 (configuration not stated)	inactive	inactive	inactive	inactive	inactive	inactive	inactive	inactive	–	–	–	–	–	–	–
CC(Oc1cc(Cl)c(Cl)cc1Cl)C(=O)N/N=C\c1cccnc1 (configuration not stated)	inactive	inactive	inactive	inactive	inactive	inactive	inactive	inactive	–	–	–	–	–	–	–
CC(Oc1cc(Cl)c(Cl)cc1Cl)C(=O)N/N=C\c1ccncc1 (configuration not stated)	inactive	inactive	inactive	inactive	inactive	inactive	inactive	inactive	–	–	–	–	–	–	–
CC(Oc1cc(Cl)c(Cl)cc1Cl)C(=O)NN1C(=O)CSC1(C)c1ccc(Cl)cc1 (configuration not stated)	inactive	inactive	inactive	inactive	–	inactive	inactive	–	12.5 (≈ 25.3 µM)	12.5 (≈ 25.3 µM)	–	–	–	–	–
CC(Oc1cc(Cl)c(Cl)cc1Cl)C(=O)NN1C(=O)CSC12C(=O)Nc1ccccc12 (configuration not stated)	inactive	inactive	inactive	inactive	–	inactive	inactive	–	25 (≈ 51.4 µM)	50 (≈ 103 µM)	–	–	–	–	–
C/C(=N/NC(=O)C(C)Oc1cc(Cl)c(Cl)cc1Cl)c1ccc(C)cc1 (configuration not stated)	inactive	inactive	inactive	inactive	inactive	inactive	inactive	inactive	–	–	–	–	–	–	–
Clc1ccc(COC(Cn2ccnc2)c2ccc(Cl)cc2Cl)c(Cl)c1 (configuration not stated) [MICONAZOLE]	–	–	–	–	–	–	–	–	–	–	3.12 (≈ 7.5 µM)	3.12 (≈ 7.5 µM)	–	–	–
CC(Oc1cc(Cl)c(Cl)cc1Cl)C(=O)NN1C(=O)CSC1c1ccncc1 (configuration not stated)	inactive	inactive	inactive	inactive	–	inactive	inactive	–	6.25 (≈ 14 µM)	6.25 (≈ 14 µM)	–	–	–	–	–
CC(Oc1cc(Cl)c(Cl)cc1Cl)C(=O)NN1C(=O)CSC1c1cccs1 (configuration not stated)	inactive	inactive	inactive	inactive	–	inactive	inactive	–	6.25 (≈ 13.8 µM)	6.25 (≈ 13.8 µM)	–	–	–	–	–
Cc1ccc(/C=N\NC(=O)C(C)Oc2cc(Cl)c(Cl)cc2Cl)o1 (configuration not stated)	inactive	inactive	inactive	inactive	inactive	inactive	inactive	inactive	–	–	–	–	–	–	–
C#CCN1C(=O)C2(SCC(=O)N2NC(=O)C(C)Oc2cc(Cl)c(Cl)cc2Cl)c2ccccc21 (configuration not stated)	inactive	inactive	inactive	inactive	–	inactive	inactive	–	50 (≈ 95.3 µM)	50 (≈ 95.3 µM)	–	–	–	–	–
CC(Oc1cc(Cl)c(Cl)cc1Cl)C(=O)N/N=C1/C(=O)Nc2ccccc21 (configuration not stated)	inactive	inactive	inactive	inactive	inactive	inactive	inactive	inactive	–	–	–	–	–	–	–
C#CCN1C(=O)/C(=N/NC(=O)C(C)Oc2cc(Cl)c(Cl)cc2Cl)c2ccccc21 (configuration not stated)	inactive	inactive	inactive	inactive	inactive	inactive	inactive	inactive	–	–	–	–	–	–	–
Cc1ccc(C2(C)SCC(=O)N2NC(=O)C(C)Oc2cc(Cl)c(Cl)cc2Cl)cc1 (configuration not stated)	inactive	inactive	inactive	inactive	–	inactive	inactive	–	12.5 (≈ 26.4 µM)	6.25 (≈ 13.2 µM)	–	–	–	–	–
O=C(N[C@H](CO)[C@H](O)c1ccc([N+](=O)[O-])cc1)C(Cl)Cl [CHLORAMPHENICOL]	–	–	–	–	–	–	–	–	6.25 (≈ 19.3 µM)	6.25 (≈ 19.3 µM)	–	–	25 (≈ 77.4 µM)	12.5 (≈ 38.7 µM)	25 (≈ 77.4 µM)
CC(Oc1cc(Cl)c(Cl)cc1Cl)C(=O)NN1C(=O)CSC1c1cccnc1 (configuration not stated)	inactive	inactive	inactive	inactive	–	inactive	inactive	–	6.25 (≈ 14 µM)	12.5 (≈ 28 µM)	–	–	–	–	–
C/C(=N/NC(=O)C(C)Oc1cc(Cl)c(Cl)cc1Cl)c1ccc(Cl)cc1 (configuration not stated)	inactive	inactive	inactive	inactive	inactive	inactive	inactive	inactive	–	–	–	–	–	–	–
CC(Oc1cc(Cl)c(Cl)cc1Cl)C(=O)N/N=C\c1cccc([N+](=O)[O-])c1 (configuration not stated)	inactive	inactive	inactive	inactive	inactive	inactive	inactive	inactive	–	–	–	–	–	–	–
Cc1ccc(C2SCC(=O)N2NC(=O)C(C)Oc2cc(Cl)c(Cl)cc2Cl)s1 (configuration not stated)	inactive	inactive	inactive	inactive	–	inactive	inactive	–	12.5 (≈ 26.8 µM)	12.5 (≈ 26.8 µM)	–	–	–	–	–
Cc1ccc(C2SCC(=O)N2NC(=O)C(C)Oc2cc(Cl)c(Cl)cc2Cl)o1 (configuration not stated)	inactive	inactive	inactive	inactive	–	inactive	inactive	–	12.5 (≈ 27.8 µM)	12.5 (≈ 27.8 µM)	–	–	–	–	–
CC(Oc1cc(Cl)c(Cl)cc1Cl)C(=O)NN1C(=O)CSC1c1cccc([N+](=O)[O-])c1 (configuration not stated)	inactive	inactive	inactive	inactive	–	inactive	inactive	–	12.5 (≈ 25.5 µM)	12.5 (≈ 25.5 µM)	–	–	–	–	–
